This test deals with T1, TopoI (TopoIWT) (Streptococcus pneumoniae, UniProt Q8DPI9).
T1 construct: gene topA
The test can be described thus: biochemical.

T1 sequence (Q8DPI9 1-701): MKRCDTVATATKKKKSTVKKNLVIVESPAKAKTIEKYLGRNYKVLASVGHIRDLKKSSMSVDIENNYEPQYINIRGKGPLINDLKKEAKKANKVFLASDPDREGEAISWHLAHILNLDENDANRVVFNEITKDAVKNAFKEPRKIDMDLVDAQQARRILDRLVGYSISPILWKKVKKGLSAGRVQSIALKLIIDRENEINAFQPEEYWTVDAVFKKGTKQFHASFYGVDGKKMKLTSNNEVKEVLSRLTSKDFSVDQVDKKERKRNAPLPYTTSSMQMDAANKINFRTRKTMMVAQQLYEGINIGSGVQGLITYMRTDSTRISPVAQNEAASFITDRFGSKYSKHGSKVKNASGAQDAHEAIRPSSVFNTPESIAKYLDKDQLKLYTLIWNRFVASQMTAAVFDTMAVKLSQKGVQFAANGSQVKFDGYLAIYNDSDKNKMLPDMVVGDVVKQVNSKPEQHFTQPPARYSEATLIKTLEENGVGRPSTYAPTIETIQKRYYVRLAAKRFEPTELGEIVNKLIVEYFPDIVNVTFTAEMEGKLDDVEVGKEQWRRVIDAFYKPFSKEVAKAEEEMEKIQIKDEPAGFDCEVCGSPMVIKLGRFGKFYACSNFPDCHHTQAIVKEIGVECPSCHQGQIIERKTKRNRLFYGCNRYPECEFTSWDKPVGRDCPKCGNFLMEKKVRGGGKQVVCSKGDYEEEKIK

What is called IC50 is the concentration needed to halve the response being measured. Regarding `CNCCc1cc2c(c3c1ccc1cc4c(cc13)OCO4)OCO2` [SCN, Seconeolitsine], the midpoint of inhibition, the IC50, lay at 6.8 ± 2 µM.

Source of the values: PMC10648598, “Physiologic and Transcriptomic Effects Triggered by Overexpression of Wild Type and Mutant DNA Topoisomerase I in Streptococcus pneumoniae” (International Journal of Molecular Sciences, 2023).
